System: 9136 in NCI-H125 cells
Experiment: 9136 expression after 4HT induction of p53ER in NCI-H125 cells
Format: cell-based, human
Method: Total RNA was prepared from various human tissues by a single step extraction method using RNA STAT-60 according to the manufacturer's instructions (TelTest, Inc). Each RNA preparation was treated with DNase I (Ambion) at 37° C. for 1 hour. DNAse I treatment was determined to be complete if the sample required at least 38 PCR amplification cycles to reach a threshold level of fluorescence using β-2 microglobulin as an internal amplicon reference. The integrity of the RNA samples following DNase I treatment was confirmed by agarose gel electrophoresis and ethidium bromide staining. After phenol extraction cDNA was prepared from the sample using the SUPERSCRIPT™ Choice System following the manufacturer's instructions (GibcoBRL). A negative control of RNA without reverse transcriptase was mock reverse transcribed for each RNA sample. Human 9136 expression was measured by TaqMan® & quantitative PCR (Perkin Elmer Applied Biosystems) in cDNA prepared from a variety of normal and diseased (e.g., cancerous) human tissues or cell lines. Probes were designed by PrimerExpress software (PE Biosystems) based on the sequence of the human 9136 gene. Each human 9136 gene probe was labeled using FAM (6-carboxyfluorescein), and the β2-microglobulin reference probe was labeled with a different fluorescent dye, VIC. The differential labeling of the target gene and internal reference gene thus enabled measurement in same well. Forward and reverse primers and the probes for both β2-microglobulin and target gene were added to the TaqMan® Universal PCR Master Mix (PE Applied Biosystems). Although the final concentration of primer and probe could vary, each was internally consistent within a given experiment. A typical experiment contained 200 nM of forward and reverse primers plus 100 nM probe for β-2 microglobulin and 600 nM forward and reverse primers plus 200 nM probe for the target gene. TaqMan matrix experiments were carried out on an ABI PRISM 7700 Sequence Detection System (PE Applied Biosystems). The thermal cycler conditions were as follows: hold for 2 min at 50° C. and 10 min at 95° C., followed by two-step PCR for 40 cycles of 95° C. for 15 sec followed by 60° C. for 1 min.
The following method was used to quantitatively calculate human 9136 gene expression in the various tissues relative to β-2 microglobulin expression in the same tissue. The threshold cycle (Ct) value is defined as the cycle at which a statistically significant increase in fluorescence is detected. A lower Ct value is indicative of a higher mRNA concentration. The Ct value of the human 9136 gene is normalized by subtracting the Ct value of the β-2 microglobulin gene to obtain a ΔCt value using the following formula: ΔCt=[…]−Ctβ-2 microglobulin. Expression is then calibrated against a cDNA sample showing a comparatively low level of expression of the human 9136 gene. The ΔCt value for the calibrator sample is then subtracted from ΔCt for each tissue sample according to the following formula: ΔΔCt=ΔCt-sample−ΔCt-calibrator. Relative expression is then calculated using the arithmetic formula given by 2^−ΔΔCt. Relative expression levels of the target human 9136 gene in each of the tissues tested is then graphically represented as discussed in more detail below.
In addition, a study of the 9136 gene expression levels, with or without introduction of p53 expression, was carried out in several carcinoma cell lines. The p53 tumor suppressor gene has been the subject of intense study for a number of years. […] One of those identified genes is 9136, which, as mentioned earlier, is the human ALDH6 gene.

SMILES: CC/C(=C(\c1ccc(O)cc1)c1ccc(OCCN(C)C)cc1)c1ccccc1 [4HT]
- 9136 Expression (0 hr post-4HT induction): 5.82
- 9136 Expression (5 min post-4HT induction): 6.29
- 9136 Expression (20 min post-4HT induction): 5.64
- 9136 Expression (1 hr post-4HT induction): 5.60
- 9136 Expression (3 hr post-4HT induction): 5.83
- 9136 Expression (9 hr post-4HT induction): 5.10
- 9136 Expression (24 hr post-4HT induction): 3.1
- 9136 Expression (48 hr post-4HT induction): 3.03

From US20030100034A1, “9136, a human aldehyde dehydrogenase family member and uses therefor” (Millennium Pharmaceuticals, Inc., priority 2001, published 2003)
